Like-named read-outs stand apart in the source and are kept apart here.
Assays:
[1] = system: EtOH-activated PSCs; assay: Caspase 3/7 assay in EtOH-activated PSCs; type: cell-based, human; conditions: alcohol-activated PSCs; different concentrations (0-10^3 ng/mL), alcohol still present in culture
[2] = system: activated PSCs; assay: Apoptosis markers in activated PSCs, TRAILPEG versus conventional toxic agents; type: cell-based, human; conditions: 48 hr, DOX 100 nM, CIS 10 μM, H2O2 10 μM
[3] = humans; cited from earlier work
[4] = rodents; cited from earlier work

Row | Compound | killing of activated PSCs by conventional toxic agents [2] | further results
1 | conatumumab: human anti-DR5 agonistic antibody (Creative Biolabs) |  | apoptosis (caspase 3/7 activity, FIG. 9) [1]: induced strong apoptosis dose-dependently
2 | N.N.[Cl][Pt][Cl] [cisplatin] | difficult to kill | 
3 | OO [hydrogen peroxide] | difficult to kill | 
4 | COc1cccc2c1C(=O)c1c(O)c3c(c(O)c1C2=O)C[C@@](O)(C(=O)CO)C[C@@H]3O[C@H]1C[C@H](N)[C@H](O)[C@H](C)O1 [doxorubicin] | difficult to kill | 
5 | TRAIL: TNF (Tumor Necrosis Factor)-related apoptosis-inducing ligand, protein ligand that induces apoptosis |  | t1/2 [3]: < 30 min; t1/2 [4]: less than 5 min

Source: patent US11084879B2, “Compositions and methods for treating pancreatitis and pain with death receptor agonists” (The Johns Hopkins University, priority 2016, dated 2021)
